In patent publication EP4813993A1, “COMPOUND, PREPARATION METHOD THEREFOR, AND USE THEREOF” (Sichuan Kelun Pharmaceutical Research Institute Co., Ltd., priority 2023, dated 2025):

Key:
[1] = target: T1, Nav1.8 channels (Homo sapiens, UniProt Q9Y5Y9); experiment: Manual patch-clamp, current of stably overexpressed Nav1.8 channels (resting state voltage program); format: cell-based
T1 construct: expressed in transfected cells
Method in brief: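 Whole-cell manual patch clamp on cells stably overexpressing Nav1.8, held at -120 mV and stepped to 0 mV for 50 ms every 20 s (resting-state protocol). Compounds were perfused in ascending concentrations, each for 5 min or until stable; block of peak current was calculated at steady state.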

[2] = system: incision pain model; experiment: Incision pain model in ICR mice, Von Frey test; format: in vivo; conditions: Mean + SEM, n = 10; for PWT 50% value (g) Post-surgery, Preadministration: baseline before administration; for PWT 50% value (g) Pre-surgery: baseline before surgery; for PWT 50% value (g) 0.5 h: 0.5 h after administration; for PWT 50% value (g) 2 h: 2 h after administration; for PWT 50% value (g) 4 h: 4 h after administration
Experimental: Experimental Example 6: Pharmacodynamic effect study of compounds in incision pain model in ICR mice Experimental animals: ICR mice, male, 28-35 g.
Compound preparation: 5% (final preparation volume) of DMSO was added to dissolve the test compound, and then 10% (final preparation volume) of Cremophor EL and 85% Saline were sequentially added.
A plantar incision pain model was established in mice via surgery before the administration and test. Mice were placed in an anesthesia induction chamber and given 3%-4% isoflurane for anesthesia induction. After the anesthesia induction, a breathing mask was applied, and the isoflurane concentration was adjusted to 1%-2% to prevent the mice from suffering pain during the surgery. Each mouse was placed in a supine position, and the surgical site was disinfected with alcohol and iodophor. Under sterile conditions, a 0.5 cm longitudinal incision was made on the left hind paw surface, 0.2 cm away from the heel, extending toward the toes. The skin and fascia were incised; the plantar muscle was separated, slightly lifted, and longitudinally incised. The skin was then sutured with 5-0 sutures and disinfected.
2. Administration and test
The Von Frey test was performed once before the surgery. On the second day after animal modeling, the test was repeated, and animals meeting the baseline requirements were selected for enrollment. The animals were randomly grouped based on the 50% PWT values, with 10 animals per group. Administration was performed under a double-blind test protocol. The 50% PWT of the animals was measured separately before administration (baseline) and at 0.5 h, 2 h, and 4 h after administration, and a single dose was administered. The model control group was given normal saline, while the compound groups were given the compounds according to the administration doses in the table below.

T1 sequence (Q9Y5Y9 whole entry): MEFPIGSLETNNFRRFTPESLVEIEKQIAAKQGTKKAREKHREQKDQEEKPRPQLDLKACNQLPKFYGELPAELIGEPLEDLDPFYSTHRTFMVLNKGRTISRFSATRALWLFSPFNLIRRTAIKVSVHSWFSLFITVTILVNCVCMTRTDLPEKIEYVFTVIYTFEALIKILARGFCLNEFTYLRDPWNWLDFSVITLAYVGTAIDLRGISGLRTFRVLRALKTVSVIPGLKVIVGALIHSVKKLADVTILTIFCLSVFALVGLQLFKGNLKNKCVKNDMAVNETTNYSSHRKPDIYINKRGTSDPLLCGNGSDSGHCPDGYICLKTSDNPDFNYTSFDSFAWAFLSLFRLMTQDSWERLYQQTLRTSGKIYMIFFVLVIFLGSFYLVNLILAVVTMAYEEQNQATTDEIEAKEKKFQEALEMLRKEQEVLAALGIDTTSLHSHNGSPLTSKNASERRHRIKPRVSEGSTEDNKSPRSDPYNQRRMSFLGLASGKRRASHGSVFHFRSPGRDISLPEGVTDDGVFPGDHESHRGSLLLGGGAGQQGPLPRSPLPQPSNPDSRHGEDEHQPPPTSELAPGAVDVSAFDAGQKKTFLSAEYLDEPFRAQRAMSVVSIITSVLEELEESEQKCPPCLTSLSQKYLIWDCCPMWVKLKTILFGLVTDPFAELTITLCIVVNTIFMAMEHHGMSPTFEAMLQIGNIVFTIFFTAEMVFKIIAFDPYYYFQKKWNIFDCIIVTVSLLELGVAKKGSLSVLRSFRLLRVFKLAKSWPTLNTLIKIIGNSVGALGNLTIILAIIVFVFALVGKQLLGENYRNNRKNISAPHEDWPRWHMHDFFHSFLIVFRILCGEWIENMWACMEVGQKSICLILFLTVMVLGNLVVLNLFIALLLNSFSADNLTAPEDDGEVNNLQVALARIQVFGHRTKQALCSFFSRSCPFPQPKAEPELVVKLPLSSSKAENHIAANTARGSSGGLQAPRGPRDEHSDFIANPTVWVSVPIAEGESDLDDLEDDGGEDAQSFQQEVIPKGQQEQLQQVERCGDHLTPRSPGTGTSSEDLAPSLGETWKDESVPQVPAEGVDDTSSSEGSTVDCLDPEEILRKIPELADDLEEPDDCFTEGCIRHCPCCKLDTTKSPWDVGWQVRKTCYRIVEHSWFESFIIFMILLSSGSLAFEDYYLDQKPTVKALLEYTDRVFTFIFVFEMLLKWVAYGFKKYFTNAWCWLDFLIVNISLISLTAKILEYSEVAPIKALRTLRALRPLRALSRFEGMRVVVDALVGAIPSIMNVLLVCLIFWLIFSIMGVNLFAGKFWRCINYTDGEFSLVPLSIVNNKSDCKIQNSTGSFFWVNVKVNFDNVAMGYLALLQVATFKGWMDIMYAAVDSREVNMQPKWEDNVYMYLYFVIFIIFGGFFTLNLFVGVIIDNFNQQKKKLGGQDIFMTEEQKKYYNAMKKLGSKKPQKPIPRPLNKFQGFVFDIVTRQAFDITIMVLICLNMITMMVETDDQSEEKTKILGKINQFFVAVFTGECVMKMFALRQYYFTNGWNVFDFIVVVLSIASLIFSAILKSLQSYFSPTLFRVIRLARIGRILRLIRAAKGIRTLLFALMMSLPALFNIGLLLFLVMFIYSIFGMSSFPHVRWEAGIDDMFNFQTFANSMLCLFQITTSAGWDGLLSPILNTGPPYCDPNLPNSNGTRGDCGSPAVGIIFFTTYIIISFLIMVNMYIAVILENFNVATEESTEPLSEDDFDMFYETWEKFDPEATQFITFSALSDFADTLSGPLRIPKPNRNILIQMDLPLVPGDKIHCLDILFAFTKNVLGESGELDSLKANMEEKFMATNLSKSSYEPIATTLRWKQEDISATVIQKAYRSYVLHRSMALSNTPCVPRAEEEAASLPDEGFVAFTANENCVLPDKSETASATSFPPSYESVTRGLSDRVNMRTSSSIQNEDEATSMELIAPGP

COc1c(C2CC(C)(C(F)(F)F)SC2C(=O)Nc2ccnc(C(N)=O)c2)ccc(F)c1F (single isomer, unassigned) [Compound 139-A, 4-(3-(3,4-difluoro-2-methoxyphenyl)-5-methyl-5-(trifluoromethyl)tetrahydrothiophene-2-carboxamido)picolinamide]
IC50 [1]: 0.06 nM | Inhibition rate (%) ([1]; concentration of 10 nM, 0.01 µM): 95.31% | PWT 50% value (g) Post-surgery, Preadministration ([2]; 50 mg/kg group): 0.22 ± 0.03 g | PWT 50% value (g) Pre-surgery ([2]; 50 mg/kg group): 1.39 ± 0.31 g | PWT 50% value (g) 0.5 h ([2]; 50 mg/kg single dose): 0.74 ± 0.3 g | PWT 50% value (g) 2 h ([2]; 50 mg/kg single dose): 1.05 ± 0.38 g | PWT 50% value (g) 4 h ([2]; 50 mg/kg single dose): 0.74 ± 0.29 g | PWT 50% value (g) Post-surgery, Preadministration ([2]; 125 mg/kg group): 0.22 ± 0.02 g | PWT 50% value (g) Pre-surgery ([2]; 125 mg/kg group): 1.25 ± 0.31 g | PWT 50% value (g) 0.5 h ([2]; 125 mg/kg single dose): 0.82 ± 0.33 g | PWT 50% value (g) 2 h ([2]; 125 mg/kg single dose): 1.09 ± 0.32 g | PWT 50% value (g) 4 h ([2]; 125 mg/kg single dose): 0.87 ± 0.16 g | PWT 50% value (g) AUC0-8h ([2]; 125 mg/kg single dose): 6.08 ± 1.2 g·h
